Data: ChEMBL document CHEMBL3868599, “Strategy for designing selective α-l-rhamnosidase inhibitors: Synthesis and biological evaluation of l-DMDP cyclic isothioureas” (Bioorg Med Chem, 2017)

Experiments:
[1] = Inhibition of Penicillium decumbens alpha-L-rhamnosidase
Prunus dulcis [2] = experiment: Inhibition of almond beta-glucosidase at 1000 uM using p-nitrophenyl-glycoside as substrate by spectrophotometric method
Bos taurus = organism: Bos taurus; experiment: Inhibition of bovine liver beta-glucosidase at 1000 uM using p-nitrophenyl-glycoside as substrate by spectrophotometric method
[3] = biological target: T1, Beta-galactosidase (Bos taurus) (UniProt Q58D55); experiment: Inhibition of bovine liver beta-galactosidase at 1000 uM using p-nitrophenyl-glycoside as substrate by spectrophotometric method
T1 sequence (whole entry): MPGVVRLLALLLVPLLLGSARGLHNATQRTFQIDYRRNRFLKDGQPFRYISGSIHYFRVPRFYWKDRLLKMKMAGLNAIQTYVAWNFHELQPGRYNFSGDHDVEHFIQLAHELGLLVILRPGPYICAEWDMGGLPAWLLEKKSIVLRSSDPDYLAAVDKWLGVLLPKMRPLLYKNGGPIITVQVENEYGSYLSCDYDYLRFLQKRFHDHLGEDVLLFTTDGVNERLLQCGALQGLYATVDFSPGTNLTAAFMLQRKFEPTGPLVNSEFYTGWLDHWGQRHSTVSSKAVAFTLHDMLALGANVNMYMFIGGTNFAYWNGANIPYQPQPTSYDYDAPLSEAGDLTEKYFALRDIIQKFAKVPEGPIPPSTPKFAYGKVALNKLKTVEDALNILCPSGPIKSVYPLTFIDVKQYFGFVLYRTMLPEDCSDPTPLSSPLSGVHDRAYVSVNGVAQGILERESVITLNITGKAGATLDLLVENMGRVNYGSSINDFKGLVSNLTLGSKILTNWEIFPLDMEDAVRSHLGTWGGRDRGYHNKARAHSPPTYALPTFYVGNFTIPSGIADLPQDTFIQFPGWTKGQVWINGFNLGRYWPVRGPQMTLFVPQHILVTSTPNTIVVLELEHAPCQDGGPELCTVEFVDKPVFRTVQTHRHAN

Penicillium decumbens [4] = experiment: Inhibition of Penicillium decumbens alpha-L-rhamnosidase at 1000 uM using p-nitrophenyl-glycoside as substrate by spectrophotometric method
Homo sapiens = organism: Homo sapiens; experiment: Inhibition of human lysosomal beta-glucosidase at 1000 uM using 4-methylumbelliferyl-beta-D-glucopyranoside as substrate preincubated for 45 mins followed by substrate addition measured after 30 mins by fluorescence spectrophotometric method
Escherichia coli [5] = experiment: Inhibition of Escherichia coli beta-glucuronidase at 1000 uM using p-nitrophenyl-glycoside as substrate by spectrophotometric method
[6] = biological target: T2, Uncharacterized protein (Sus scrofa) (UniProt I3LIR5); experiment: Inhibition of porcine kidney trehalase assessed as D-glucose level at 1000 uM using maltose as substrate measured after 10 to 30 mins
T2 sequence (whole entry): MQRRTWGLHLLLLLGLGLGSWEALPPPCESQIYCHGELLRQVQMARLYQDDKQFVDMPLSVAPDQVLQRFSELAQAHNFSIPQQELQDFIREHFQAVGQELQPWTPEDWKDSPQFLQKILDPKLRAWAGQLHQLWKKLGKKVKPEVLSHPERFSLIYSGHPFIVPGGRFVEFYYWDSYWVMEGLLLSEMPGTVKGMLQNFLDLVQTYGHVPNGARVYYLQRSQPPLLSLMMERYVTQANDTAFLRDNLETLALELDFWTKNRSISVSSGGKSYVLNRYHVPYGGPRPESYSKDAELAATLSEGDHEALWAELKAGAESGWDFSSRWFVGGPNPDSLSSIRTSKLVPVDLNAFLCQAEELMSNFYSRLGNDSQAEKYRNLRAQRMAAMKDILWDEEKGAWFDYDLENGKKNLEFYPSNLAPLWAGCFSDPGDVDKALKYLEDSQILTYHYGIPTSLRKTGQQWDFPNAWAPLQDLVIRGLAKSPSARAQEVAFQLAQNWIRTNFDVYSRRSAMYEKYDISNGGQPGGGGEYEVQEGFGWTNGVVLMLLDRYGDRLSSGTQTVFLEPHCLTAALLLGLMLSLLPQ

Aspergillus niger [7] = experiment: Inhibition of Aspergillus niger amyloglucosidase assessed as D-glucose level at 1000 uM using maltose as substrate measured after 10 to 30 mins
Rattus norvegicus [8] = organism: Rattus norvegicus; experiment: Inhibition of rat intestinal maltase assessed as D-glucose level at 1000 uM using maltose as substrate measured after 10 to 30 mins
Oryza sativa [9] = experiment: Inhibition of rice alpha-glucosidase at 1000 uM using p-nitrophenyl-glycoside as substrate by spectrophotometric method
[10] = biological target: T3, Tissue alpha-L-fucosidase (Bos taurus) (UniProt Q2KIM0); experiment: Inhibition of bovine kidney alpha-L-fucosidase at 1000 uM using p-nitrophenyl-glycoside as substrate by spectrophotometric method
T3 sequence (whole entry): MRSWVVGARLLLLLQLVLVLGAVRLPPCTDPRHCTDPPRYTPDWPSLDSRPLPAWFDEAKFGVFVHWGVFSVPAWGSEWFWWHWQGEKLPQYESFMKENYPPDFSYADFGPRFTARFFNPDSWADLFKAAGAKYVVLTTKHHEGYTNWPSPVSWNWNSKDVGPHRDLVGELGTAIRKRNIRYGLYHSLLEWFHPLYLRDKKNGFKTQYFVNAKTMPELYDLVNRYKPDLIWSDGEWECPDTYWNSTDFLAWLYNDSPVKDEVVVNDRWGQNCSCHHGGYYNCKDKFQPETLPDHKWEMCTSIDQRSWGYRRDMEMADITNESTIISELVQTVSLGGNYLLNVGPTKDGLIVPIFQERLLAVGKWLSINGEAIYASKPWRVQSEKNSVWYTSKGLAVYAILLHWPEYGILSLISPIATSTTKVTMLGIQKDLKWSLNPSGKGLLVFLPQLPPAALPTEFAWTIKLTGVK

[11] = Inhibition of Penicillium decumbens alpha-L-rhamnosidase using p-nitrophenyl-glycoside as substrate by spectrophotometric method
[12] = Inhibition of bovine liver beta-glucosidase using p-nitrophenyl-glycoside as substrate by spectrophotometric method; parameters: species or system Bos taurus
[13] = biological target: T2, Uncharacterized protein (Sus scrofa); experiment: Inhibition of porcine kidney trehalase assessed as D-glucose level at 100 uM using maltose as substrate measured after 10 to 30 mins
[14] = Inhibition of human lysosomal beta-glucosidase using 4-methylumbelliferyl-beta-D-glucopyranoside as substrate preincubated for 45 mins followed by substrate addition measured after 30 mins by fluorescence spectrophotometric method
[15] = biological target: T3, Tissue alpha-L-fucosidase (Bos taurus); experiment: Inhibition of bovine kidney alpha-L-fucosidase at 100 uM using p-nitrophenyl-glycoside as substrate by spectrophotometric method
Prunus dulcis [16] = experiment: Inhibition of almond beta-glucosidase at 100 uM using p-nitrophenyl-glycoside as substrate by spectrophotometric method
Aspergillus niger [17] = experiment: Inhibition of Aspergillus niger amyloglucosidase assessed as D-glucose level at 100 uM using maltose as substrate measured after 10 to 30 mins
Penicillium decumbens [18] = experiment: Inhibition of Penicillium decumbens alpha-L-rhamnosidase at 100 uM using p-nitrophenyl-glycoside as substrate by spectrophotometric method
Oryza sativa [19] = experiment: Inhibition of rice alpha-glucosidase at 100 uM using p-nitrophenyl-glycoside as substrate by spectrophotometric method
Beta-galactosidase = biological target: T4, Beta-galactosidase (Bos taurus, UniProt Q58D55); experiment: Inhibition of bovine liver beta-galactosidase using p-nitrophenyl-glycoside as substrate by spectrophotometric method
T4 sequence (Q58D55 whole entry): T1 sequence (whole entry)

Escherichia coli [20] = experiment: Inhibition of Escherichia coli beta-glucuronidase at 100 uM using p-nitrophenyl-glycoside as substrate by spectrophotometric method
Rattus norvegicus [21] = organism: Rattus norvegicus; experiment: Inhibition of rat intestinal maltase assessed as D-glucose level at 100 uM using maltose as substrate measured after 10 to 30 mins

Compound | inhibition (Prunus dulcis [2]) | inhibition (Bos taurus) | inhibition (Penicillium decumbens [4]) | inhibition (Escherichia coli [5]) | inhibition [6] | inhibition (Aspergillus niger [7]) | inhibition (Rattus norvegicus [8]) | inhibition (Oryza sativa [9]) | inhibition [10] | IC50 [11] | IC50 (Beta-galactosidase) | further results
OC[C@@H]1[C@H](O)[C@@H](O)[C@@H]2CCCCN12 | – | – | – | – | – | – | – | – | – | – | – | IC50 [1]: 3.3 µM
CCCCNC(=S)N1[C@H](CO)[C@@H](O)[C@H](O)[C@H]1CO | < 50% | < 50% | < 50% | < 50% | < 50% | < 50% | < 50% | < 50% | < 50% | – | – | inhibition [3]: < 50%; inhibition (Homo sapiens): < 50%
C[C@H]1N[C@@H](CO)[C@H](O)[C@H](O)[C@H]1O | – | – | – | – | – | – | – | – | – | – | – | IC50 [1]: 850 µM
OC[C@H]1[C@H](O)[C@@H](O)[C@@H]2CS/C(=N/Cc3ccc(F)cc3)N12 | – | – | – | – | – | – | – | – | – | 1.8 µM | – | –
CCCCCCCCCCCCNC(=S)N1[C@H](CO)[C@@H](O)[C@H](O)[C@H]1CO | – | – | – | – | – | – | – | – | – | – | 24 µM | IC50 [12]: 23 µM; inhibition [13]: < 50%; IC50 [14]: 0.16 µM; inhibition [15]: < 50%; inhibition (Prunus dulcis [16]): < 50%; inhibition (Aspergillus niger [17]): < 50%; inhibition (Penicillium decumbens [18]): < 50%; inhibition (Oryza sativa [19]): < 50%; inhibition (Escherichia coli [20]): < 50%; inhibition (Rattus norvegicus [21]): < 50%
OC[C@H](O)[C@@H]1NC[C@H](O)[C@@H]1O | – | – | – | – | – | – | – | – | – | – | – | IC50 [1]: 52.8 µM
OC[C@H]1[C@H](O)[C@@H](O)[C@@H]2CS/C(=N/Cc3cc(Cl)cc(Cl)c3)N12 | – | – | – | – | – | – | – | – | – | 0.7 µM | – | –
CCCCCCNC(=S)N1[C@H](CO)[C@@H](O)[C@H](O)[C@H]1CO | < 50% | < 50% | < 50% | < 50% | < 50% | < 50% | < 50% | < 50% | < 50% | – | 1000 µM | inhibition (Homo sapiens): < 50%
CCCCCCNC(=S)N1[C@@H](CO)[C@H](O)[C@@H](O)[C@@H]1CO | < 50% | < 50% | < 50% | < 50% | < 50% | < 50% | < 50% | < 50% | < 50% | – | 572 µM | inhibition (Homo sapiens): < 50%
OC[C@H]1[C@H](O)[C@@H](O)[C@@H]2CS/C(=N/Cc3ccc(Cl)cc3Cl)N12 | – | – | – | – | – | – | – | – | – | 0.8 µM | – | –
CCCCCCCCNC(=S)N1[C@H](CO)[C@@H](O)[C@H](O)[C@H]1CO | < 50% | – | < 50% | < 50% | < 50% | < 50% | < 50% | < 50% | < 50% | – | 414 µM | IC50 [12]: 689 µM; IC50 [14]: 12 µM
CCCCCC/N=C1/SC[C@@H]2[C@@H](O)[C@H](O)[C@@H](CO)N12 | < 50% | < 50% | – | < 50% | < 50% | < 50% | < 50% | < 50% | < 50% | 494 µM | – | inhibition [3]: < 50%; IC50 [14]: 16 µM
OC[C@H]1[C@H](O)[C@@H](O)[C@@H]2CS/C(=N/Cc3cc(Cl)c(Cl)c(Cl)c3)N12 | – | – | – | – | – | – | – | – | – | 0.45 µM | – | –
